# Experimental data from a melting point compilation (Tetko et al.; mined from patent text by program, amines drawn as free bases though some values may be those of a salt).
# Residues, ends and D or L forms follow the SMILES beside them. *: point of attachment. Boc = CC(C)(C)OC(=O)*; OBn = c1ccc(CO*)cc1; Bn = c1ccc(C*)cc1
row,SMILES,melting point [°C]
1,Cc1c(-c2ccccc2)n(-c2cc([N+](=O)[O-])ccc2Cl)c(-c2ccccc2)cc1=O,277 to 279
2,Fc1ccc(Cn2ccc3cc(Br)ccc32)cc1,57 to 58
3,CCCCc1ccc(-c2cc(C(=O)O)cc(-c3ccc(Cl)cc3)n2)cc1,209 to 210
4,NS(=O)(=O)c1ccc(-c2cnn(CC(F)=C(F)F)c(=O)c2-c2ccc(F)cc2)cc1,173 to 175
5,O=C(Nc1ccc(-n2nc(C(F)(F)F)cc2C(F)(F)F)c(C(F)(F)F)c1)c1ccc(Cl)cc1,65 to 67
6,CC(=O)N1CCN2C(=O)N(c3cc(Cl)cc(Cl)c3)C(=O)C2(Cc2ccc(Br)cc2)C1 (configuration not stated),89.6
7,COc1cc2c(cc1OC)N(Cc1ccccc1)C(=O)CN=C2c1cccc(C(F)(F)F)c1,175 to 178
8,CC(C)C(=O)N[C@@H](CSC(=O)c1ccccc1)C(=O)NCCSC(=O)C(C)C,155 to 157
9,CS(=O)(=O)c1ccc(-c2cnn(-c3ccc(F)cc3)c(=O)c2-c2ccc(Cl)cc2)cc1,195 to 197
10,Cc1nc(-n2cc(OCc3ccccc3)ccc2=O)sc1C(=O)NCc1ccccc1,166 to 167
11,CCCCc1nc2c(N)nc3ccccc3c2n1CCCNS(C)(=O)=O,239 to 241
12,CCCNC(=O)C(C)Cc1ccc2ccn(Cc3ccc(C(=O)NS(=O)(=O)c4ccccc4C)cc3OC)c2c1 (configuration not stated),192 to 194
13,Cc1ccc(S(=O)(=O)Nc2nc(-c3ccc(OCc4ccccc4)c(OCc4ccccc4)c3)cs2)cc1,158 to 161
14,CCOC(=O)c1ncn(-c2cc(C(F)(F)F)ccc2[N+](=O)[O-])c1C,140
15,COc1cc(C(=O)CCCc2ccccc2)ccc1O,91 to 92
16,CN1C(=O)C(NC(=O)NCc2ccccc2)N=C(c2ccccc2)c2ccccc21 (configuration not stated),240 to 242
17,Cc1cc(Oc2cc(F)ccc2[N+](=O)[O-])n[nH]1,95 to 97
18,CN(CCNC(=O)NCCCOc1cccc(CN2CCCCC2)c1)CCN(Cc1ccc(F)cc1)c1ccccn1,68
19,CCCNC(=O)C(C)=Cc1ccc2ccn(Cc3ccc(C(=O)O)cc3OC)c2c1,150 to 152
20,CC(C)[C@H](NC1CCCCC1)C(=O)NCCCC(c1ccc(F)cc1)c1ccc(F)cc1,49 to 53
21,CCOc1nn(Cc2ccc(OCc3csc(-c4ccccc4)n3)cc2)cc1CCC(=O)O,114 to 115
22,COc1ccc(CN(CCCNc2nccc(=O)[nH]2)c2ccccn2)cc1,63 to 80
23,CC(C)c1cc(NS(=O)(=O)c2cc(C3(O)CCC(=O)N3C)ccc2Cl)cc(C(C)C)c1O (configuration not stated),198 to 200
24,COc1c(F)ccc2c1C(=O)N1CC[C@H]1c1c(-c3noc(CN)n3)ncn1-2,196 to 198
25,CC(C)C(NC(=O)c1ccncc1)C(=O)NC(Cc1ccccc1)C(O)C(Cc1ccccc1)NC(=O)C(NC(=O)c1ccncc1)C(C)C (configuration not stated),256 to 258

row,SMILES,melting point [°C]
1,O=c1c2c(c3cccnc3n1-c1ccccc1)OC(CO)C2 (configuration not stated),267 to 268
2,CCCCCCc1cc2c(cc1OCCCC(=O)O)C(=O)CCC2,81
3,CC(=O)c1ccc(Cc2cn(-c3ccc(F)cc3)c3ncccc3c2=O)cc1,227 to 229
4,CCOC(=O)c1ccc2c(CC[N+](=O)[O-])c[nH]c2c1,124 to 127
5,O=C(C=Cc1ccc(-c2ccc(O)cc2)cc1)NO,> 300
6,CN1CCN(C(=O)CCS)C(C(=O)O)C1 (configuration not stated),75 to 79
7,COc1cccc(CNC(=O)c2nc3ccccc3c(=O)[nH]2)c1,186 to 189
8,COC(=O)c1ccc(OC)c(NC(=NCl)c2ccc(Cl)cc2)c1,120
9,CC(=O)Nc1c([N+](=O)[O-])cc(Br)cc1[N+](=O)[O-],238 to 239
10,COc1ccc(C(=O)O)c2c1OC(C)(C)C2,147 to 149
11,CC(C)n1nc(-c2c(N)nc(N)nc2-c2ccccc2)ccc1=O,258 to 260
12,Cn1cc(O)c(=O)c2ccc(OCC(F)(F)F)cc21,151
13,COc1cc(C=CC(=O)Nc2cnc3ccccc3c2-c2ccccc2)cc(OC)c1OC(C)=O,247 to 248
14,CC(C)c1cccc(C(C)C)c1NC(=O)CC(=O)C(c1ccccc1)c1ccccc1,153 to 155
15,COC(=O)C1CCSc2cc(OC)c(OC)cc2C1=O (configuration not stated),132 to 133
16,C=C(Cc1ccc(OC)cc1)C(=O)O,88 to 91
17,CSc1nc(-c2cc(C(C)(C)C)c(O)c(C(C)(C)C)c2)c[nH]1,249 to 251
18,CCN(CC)CCOc1ccc(C(O)(CC)c2ccccc2)cc1 (configuration not stated),113
19,COc1cccc(C(=O)N2c3ccccc3C(O)CC2C)c1 (configuration not stated),148 to 149
20,Cc1oc(-c2ccccc2)nc1CC=Cc1ccc(CC2OC(=O)NC2=O)cc1 (configuration not stated),168 to 169
21,CCOC(=O)c1cc(C)n(-c2cccc(Br)c2)c1-c1ccccc1,118 to 119
22,N#CCSC(C(=O)O)c1ccccc1 (configuration not stated),110 to 112
23,COc1ccc2c(c1)C(=O)N(C)C(C(Cl)(Cl)Cl)O2 (configuration not stated),107 to 110
24,CSc1ccc(N)c(C(=O)NCC2CCN(C(c3ccccc3)c3ccccc3)CC2)c1,156 to 157
25,CNC(=O)c1cnc(N2CCOCC2)cc1-c1ccccc1C,156 to 158

row,SMILES,melting point [°C]
1,CCOC(=O)c1nc[nH]c1F,153 to 154
2,C=CCSCC(N)C(=O)O (configuration not stated),212 to 213
3,Nc1cc(F)cc2cc(C(=O)NCC(F)(F)C(F)(F)C(F)(F)F)cnc12,202 to 204
4,COC(=O)CNCc1ccc(OCc2ccccc2)cc1,57 to 58
5,Cc1ccc(C)c(OCCCC(C)(C)C(=O)Nc2cccc(C(=O)O)c2)c1,161
6,COc1ccc(C(=O)c2ccccc2)cc1C(=O)O,150
7,O=C(C#Cc1ccc(CN2CCC(N3CCCC3)CC2)cc1)Nc1ccc(-c2ccc(Cl)cc2)cc1,191 to 192
8,CCOc1cc(OCC)c(C=[N+]([O-])C2CCCCC2)c(OCC)c1,146
9,O=C(O)CCCCCNC(=O)C1Cc2ccccc2N1S(=O)(=O)c1ccc(-c2cccc(C(F)(F)F)c2)cc1 (configuration not stated),50
10,COc1cc(-c2oc3c(OC)cc(/C=C/CO)cc3c2C)ccc1O,180 to 183
11,O=C(O)CNC(=O)Nc1ccc(CC(=O)OCc2ccccc2)cc1,192
12,O=C1CCn2c(-c3cccs3)nc3c(Cl)ccc1c32,252 to 254
13,CCCCOc1ccc2[nH]c3c([N+](=O)[O-])ccc(Cl)c3c(=O)c2c1,154 to 155
14,CCCCCCCCCCOc1ccc(C(=O)NNC(=O)C(F)(F)C(F)(F)C(F)(F)F)cc1,88
15,NC(=O)c1c(C(=O)O)cnn1-c1ccc(Cl)c(Cl)c1,249 to 250
16,CCOC(=O)c1coc(=O)cc1S(C)(=O)=O,95 to 97
17,CCCCCCCCCCCCCCCCCCOc1cccc(N(CC(=O)OC)CC(=O)OC)c1,75 to 77
18,COc1ccc(C(=O)Nc2nc(=O)c3cnn4c3n2CC=C4c2cccc(C(F)(F)F)c2)cc1,271 to 273
19,O=CCC(=O)Nc1ccccc1,150 to 153
20,O=C1C(=O)N(C(c2ccccc2)c2ccccc2)c2cccc(F)c21,168 to 171
21,"O=C(NC(CS)Cc1ccccc1)N1CCN(c2ccccc2)CC1 (single isomer, unassigned; (+))",122
22,CC1(N)CN(c2c(F)cc3c(=O)c4c(=O)[nH]sc4n(C4CC4)c3c2F)C1,294 to 300
23,CC(C)CC(NC(=O)C(Cc1ccc(OCc2ccccc2)cc1)NC(=O)OC(C)(C)C)C(=O)NCC(=O)OCc1ccccc1 (stereo not drawn) (Boc-Tyr(Bn)-Leu-Gly-OBn; configuration not given here),114 to 116
24,CCCCCCCCCCCCCCc1ccc(CCCCCC)c(OCC(O)CO)c1 (configuration not stated),46 to 47
25,CCC(C)N1CCc2c(C(=O)O)nc3c(C#N)cnn3c21 (configuration not stated),191 to 192

row,SMILES,melting point [°C]
1,C[C@H](Cn1ncnn1)n1cnc2cc3c(=O)n(Cc4c[nH]nn4)nnc3cc2c1=O,180 to 182
2,Cc1c(NC(=O)c2ccc(-c3ccc(F)cc3)cc2)ccc2cc(C(c3ccccc3)N3CCCC3)cnc12 (configuration not stated),192 to 195
3,Cn1c2cccc(Br)c2c2c(CC(=O)N3CCCC3)nn(-c3ccccc3)c(=O)c21,209 to 210
4,O=C(O)Cc1cnn(-c2ccccc2)c1-c1ccc(Cl)cc1,185 to 186
5,CN1CCC2(CCc3c(C4=C(c5cn(C)c6ccccc56)C(=O)OC4=O)c4ccccc4n3C2)C1 (configuration not stated),238 to 240
6,CN(c1cc(=S)ss1)C1CCCCC1,107
7,Oc1nc(-c2ccc(F)cc2)sc1-c1ccccc1,231 to 233
8,CC1(C)CCC(C)(C)c2cc(-c3cc4ccc(C(=O)O)cc4[nH]3)ccc21,215
9,O=C1Nc2ccccc2N(C(=O)N2CCCC(CCNCC3CCCC3)C2)c2ncccc21 (configuration not stated),148 to 150
10,O=C(c1cc(Cl)ccc1NC(c1ccccc1)(c1ccccc1)c1ccccc1)C(F)(F)F,165 to 167
11,N#CNC(=N)CCN1CCOC1=O,137 to 139
12,CCOC(=O)C(C)(C)CCS(N)(=O)=O,93 to 94
13,Nc1nc(Nc2ccc3nc[nH]c3c2)sc1C(=O)c1cc(Cl)sc1Cl,> 300
14,CCN1C(=O)Cc2cc(C(=O)c3ccccc3)ccc21,134 to 136
15,Cc1cccc(C)c1N(CC(=O)N(C)C)C(=O)CCl,74 to 76
16,COc1ccc2c(c1)C(=O)C(=O)N2CCN(C(C)C)C(C)C,81 to 82.5
17,CC(C)(CNc1ccc(C2=NNC(=O)CC2)cc1)[N+](=O)[O-],220 to 222
18,O=C1Nc2c(ccc3ccccc23)SC1Cc1ccc(Cl)cc1 (configuration not stated),185 to 186
19,COCC(=O)c1c(Cl)ccc(F)c1Cl,36.7 to 39.4
20,O=C(O)[C@H](CC1CC1)N1C(=O)NC(C(F)(F)F)(C(F)(F)F)C1=O,123 to 125
21,CCN(CC)c1ccc(NC(=O)N(C[C@@H]2CCC[C@H](CN(C(=O)Nc3ccc(N(CC)CC)cc3)C3CCCCC3)C2)C2CCCCC2)cc1,170 to 172
22,NC(=O)c1ccc(F)c2c1CC(N(CCCCc1c[nH]c3ccc(F)cc13)C1CCC1)CO2 (configuration not stated),122
